Data taken from patent publication US7312356B2, “Medicament” (Cyclacel Limited, priority 2001, dated 2007).

CC(=O)OC[C@@]1(C(=O)O)CC[C@]2(C)C(CCC3[C@@]4(C)CC[C@H](OC(C)=O)C(C)(C)C4CC[C@]32C)C1=O (stereo partly drawn) [(7), 3β,28-Diacetoxy-18-oxo-19,20,21,29,30-pentanorlupan-22-oic Acid]
melting point: 142 to 144 °C
